Assay results from publication PMC8348310, “Antioxidants Isolated from Elaeagnus umbellata (Thunb.) Protect against Bacterial Infections and Diabetes in Streptozotocin-Induced Diabetic Rat Model” (Molecules, 2021).
Values after ≈ are worked out from the molar mass of the structure shown.

Columns and labels:
Bacillus cereus = assay: Broth dilution MIC determination; type: cell-based; conditions: 37 °C, 24 h, read-out: Minimum Inhibitory Concentrations
Procedure: (§1) Antibacterial potential of isolated compound was investigated against both Gram-positive and Gram-negative bacterial strains; Escherichia coli, Bacillus cereus, Salmonella typhi, Klebsiella pneumonia, Pseudomonas aeruginosa and Proteus mirabilis. Bacterial strains were provided by the Department of Pharmacy, University of Malakand, Khyber Pakhtunkhwa, Pakistan, and were kept at 4 °C in agar slants in freeze-dried condition until further use.
(§2) Both Gram-positive and Gram-negative bacterial strains Escherichia coli, Bacillus cereus, Salmonella typhi, Klebsiella pneumonia, Pseudomonas aeruginosa and Proteus mirabilis organism viable count per mL in the stock suspension was determined using surface viable counting technique. About 10^8–10^9 colony-forming units (CFU) per mL were used as inoculum in subsequent experiments. A fresh stock suspension was used each time.
(§3) Minimum inhibitory concentrations (MICs) of morin, phloroglucinol, and 1-hexyl benzene were determined using broth dilution method, following the Clinical and Laboratory Standards Institute (CLSI) guidelines. Stock solutions of morin, phloroglucinol, and 1-hexyl benzene were prepared in dimethylsulphoxide (DMSO). The serial dilutions from the stock solution were made ranging from 500 to 3.90 μg/mL using Mueller–Hinton broth. Sterile centrifuge tubes were arranged in sets of rows for each bacterial inoculum to cover the different concentration of isolated compounds in triplicate. The standard bacterial stock suspension 10^8–10^9 CFU/mL, in 100 μL were inoculated into each tube. A sterility control tube and a growth control tube were also incubated (for each strain). The tubes were incubated at 37 °C for 24 h. After incubation, 40 μL of a 0.4 mg/mL solution of para iodonitrotetrazolium (INT) chloride was added to each tube as an indicator of microbial growth. […] The evaluation for the inhibition of microbial growth was based on the color change of INT to pink, while no color change indicates the absence of growth. The MIC is the lowest concentration of the compounds at which there is no visible growth in the tubes. The concentration that inhibited bacterial growth completely (the first clear tube) was taken as the MIC value. Experiments were performed in triplicate and mean values are presented.
(§4) In order to, determine the sensitivity of the bacterial strains, positive control experiments were conducted, taking ampicillin at a starting concentration of 0.10 mg/mL in sterile water while the final concentrations for these experiments ranged from 25.00 to 0.19 μg/mL. A negative control experiment was conducted using only DMSO.

Escherichia coli = assay: Broth dilution MIC determination; type: cell-based; conditions: 37 °C, 24 h, read-out: Minimum Inhibitory Concentrations
Procedure: as §1, §2, §3, §4

Klebsiella pneumonia = assay: Broth dilution MIC determination; type: cell-based; conditions: Klebsiella pneumoniae, 37 °C, 24 h, read-out: Minimum Inhibitory Concentrations
Procedure: as §1, §2, §3, §4

Proteus mirabilis = assay: Broth dilution MIC determination; type: cell-based; conditions: 37 °C, 24 h, read-out: Minimum Inhibitory Concentrations
Procedure: as §1, §2, §3, §4

Pseudomonas aeruginosa = assay: Broth dilution MIC determination; type: cell-based; conditions: 37 °C, 24 h, read-out: Minimum Inhibitory Concentrations
Procedure: as §1, §2, §3, §4

Salmonella typhi = assay: Broth dilution MIC determination; type: cell-based; conditions: Salmonella enterica, 24 h, read-out: Minimum Inhibitory Concentrations
Staphylococcus aureus = assay: Broth dilution MIC determination; type: cell-based; conditions: 37 °C, 24 h, read-out: Minimum Inhibitory Concentrations
Procedure: as §3, with “Stock” for “Minimum inhibitory concentrations (MICs) of morin, phloroglucinol, and 1-hexyl benzene were determined using broth dilution method, following the Clinical and Laboratory Standards Institute (CLSI) guidelines. Stock”, “The serial dilutions from the stock solution were made ranging from 500 to 3.90 μg/mL using Mueller–Hinton broth.” left out, “The standard bacterial stock suspension 10^8–10^9 CFU/mL, in 100 μL were inoculated into each tube.” left out, “presented. […] A negative control experiment was conducted using only DMSO.” for “presented.”

[1] = DPPH free radical scavenging assay; type: biochemical
Procedure: According to the Brand-Williams assay DPPH (2, 2-diphenyl-1-picrylhydrazyl) free radical scavenging activity of morin was determined. DPPH and compounds stock solutions (1 mg/mL) were prepared in 100 mL methanol with serial dilutions of […], 62.5, 250, 500, and 1000 µg/mL. After that, 0.1 mL morin was mixed with 3.0 mL DPPH solution and incubated at 23 °C for 30 min. Standard ascorbic acid solution was also prepared in the same way using as a positive control. Finally, absorbance was measured at 517 nm via UV spectrophotometer. Results were taken in a set of three experiments and represented as mean ± SEM. Percent free radicals scavenging potential was calculated according to the following Equation (1): (1) % Free radicals Scavenging potential = Blank sample absorbance−sample absorbance/Blank sample absorbance×100
(§5) All the in vitro and in vivo experiments were analyzed in three replicates and determined as mean ± SEM. Student’s t-test and one way ANOVA followed by Dunnett’s post hoc multiple comparison test was used. p ≤ 0.05 were considered as significant. Linear regression analysis was used to calculate the IC50 value for % DPPH, ABTS, α-amylase, and α-glucosidase inhibition against the different concentrations of the test samples by means of Excel program 2007.

[2] = ABTS free radical scavenging assay; type: biochemical
Procedure: ABTS (2,2′-azinobis-3-ethylbenzothiazoline-6-sulfonic acid) free radicals inhibition potential were determined according to the reported assay. ABTS solution was prepared in methanol (100 mL). In total, 300 µL of compound (morin, phloroglucinol, and 1-hexyl benzene) was mixed thoroughly with 3.0 mL ABTS solution and incubated for six minutes. Finally, the absorbance was measured through UV spectrophotometer using ascorbic acid as positive control. Percent ABTS free radicals scavenging potential was calculated using the equation No. 1.
as §5

[3] = DPPH free radical scavenging assay; type: biochemical; conditions: 125 µg/mL
[4] = 1000 µg/mL, listed as ascorbic acid
[5] = linear regression of % scavenging vs concentration

## CC1(C)S[C@@H]2[C@H](NC(=O)[C@H](N)c3ccccc3)C(=O)N2[C@H]1C(=O)O [Ampicillin, ampicillin, reference compound]
Bacillus cereus
  MIC: 1.6 µg/mL (≈ 4.58 µM)
Escherichia coli
  MIC: 1 ± 0.1 µg/mL (≈ 2.86 µM)
Klebsiella pneumonia
  MIC: 1.9 ± 1.2 µg/mL (≈ 5.44 µM)
Proteus mirabilis
  MIC: 1.9 ± 1.1 µg/mL (≈ 5.44 µM)
Pseudomonas aeruginosa
  MIC: 1.2 ± 0.5 µg/mL (≈ 3.43 µM)
Salmonella typhi
  MIC: 1.8 ± 0.1 µg/mL (≈ 5.15 µM)
Staphylococcus aureus
  MIC: 1.4 ± 0.5 µg/mL (≈ 4.01 µM)

## O=C1O[C@H]([C@@H](O)CO)C(O)=C1O [Ascorbic acid, ascorbic acid, reference compound]
[1]; 31.05 µg/mL
  % DPPH Scavenging Mean ± SEM: 69 ± 0.4%
[1]; 62.5 µg/mL
  % DPPH Scavenging Mean ± SEM: 73 ± 0.5%
[1]; 250 µg/mL
  % DPPH Scavenging Mean ± SEM: 80 ± 0.4%
[1]; 500 µg/mL
  % DPPH Scavenging Mean ± SEM: 86 ± 1.0%
[1]; 1000 µg/mL
  % DPPH Scavenging Mean ± SEM: 91 ± 0.5%
[1]; [4]
  % DPPH Scavenging Mean ± SEM: 86 ± 0.5%
[1]; [5]
  DPPH IC50: 29 µg/mL
[2]; 31.05 µg/mL
  % ABTS Scavenging Mean ± SEM: 56 ± 1.1%
[2]; 62.5 µg/mL
  % ABTS Scavenging Mean ± SEM: 64 ± 1.0%
[2]; 125 µg/mL
  % ABTS Scavenging Mean ± SEM: 70 ± 0.5%
[2]; 250 µg/mL
  % ABTS Scavenging Mean ± SEM: 78 ± 0.5%
[2]; 500 µg/mL
  % ABTS Scavenging Mean ± SEM: 84 ± 1.1%
[2]; 1000 µg/mL
  % ABTS Scavenging Mean ± SEM: 90 ± 0.5%
[2]; [4]
  % ABTS Scavenging Mean ± SEM: 85 ± 0.5%
[2]; [5]
  ABTS IC50: 32 µg/mL
[3]
  % DPPH Scavenging Mean ± SEM: 77 ± 0.4%
